These are literature values, as cited in patent US20260248126A1, “BIOCIDE” (PURGOS APS, priority 2020, published 2026).

The conditions of this data set: cited from earlier work.

As for `[Cl-].[Na+]` [table salt (NaCl), NaCl], the “LD50 (rat, oral)” value was 3000 mg.
